Patent US20230382863A1, “MEK INHIBITORS AND USES THEREOF” (Ikena Oncology, Inc., priority 2022, published 2023)

What was measured:
[1] = test system: pERK HCT-116 (G13D); experiment: pERK HCT-116 (G13D) ICW (4 hour); format: cell-based; details: Homo sapiens, read-out: pERK HCT-116 (G13D) ICW (4 hour): Average IC50 (nM)
[2] = test system: Phosphorylation of MEK1/2 in AsPC1 cells; experiment: 4 hour pMEK1/2 MSD Assay; format: cell-based; details: Homo sapiens; AsPC1, 4 hours; read-out: pMEK IC50
Protocol: AsPC1 cells were seeded at 10,000 cells/well overnight in 96-well plates, then treated with a 12-point dose response of compounds (Starting dose of 1000 nM and 3-fold dilution) for 4 hours. AsPC1 cells are a K-Ras mutant (G12D) pancreatic cancer cell line. Phosphorylation of MEK1/2 on residues Ser217 and Ser221 were detected using a MesoScale Discovery (MSD) assay (MSD Cat #K15129D-2). MEK1/2 phosphorylation levels were normalized to total MEK1/2 protein detected in each well on the same MSD plate. IC50 values were determined by fitting a variable slope, four parameters curve to the compound concentration to normalized Phospho-MEK1/2 relationship.

[3] = Pharmacokinetics in rat; format: in vivo; details: plasma, IV, 1 mg/kg
[4] = test system: AsPC1 xenograft (KRAS G12D); experiment: In vivo efficacy, AsPC-1 xenograft model; parameters: species or system mouse; details: AsPC-1 model, 3 mg/kg QD, Day 21
Protocol: (§1) The antitumor activity of exemplary MEK inhibitor compounds is evaluated in vivo using human cell line derived xenografts (CDX) grown in immunodeficient mice. For these studies, AsPC1 (pancreatic cell line with KRAS G12D mutation), NCI-H2122 (lung cell line with KRAS G12C mutation), and 5637 (bladder cell line with CRAF amplification) models are used. In addition, HCT-116 (colorectal cell line with KRAS G13D mutation), SKM-1 (AML cell line with KRAS K117N mutation), and OCI-AML-3 (AML cell line with NRAS Q61L mutation) models are used. The tumor cell lines (AsPC-1, NCI-H2122, 5637, and HCT-116 cells) are maintained in vitro as monolayer culture in medium at 37° C. in an atmosphere of 5% CO2 in air. The tumor cell lines (SKM-1 and OCI-AML-3 cells) are maintained in vitro as a suspension in medium at 37° C. in an atmosphere of 5% CO2 in air. The tumor cells are routinely sub-cultured before confluence by trypsin-EDTA treatment, not to exceed 4-5 passages. The cells growing in an exponential growth phase are harvested for tumor inoculation. AsPC1, NCI-H2122, and OCI-AML-3 tumors are implanted into Balb/c nude mice. HCT-116 tumors are implanted into Nu/Nu mice. 5637 and SKM-1 tumors are implanted into NOG mice. […] Throughout the study, mouse body weight and tumor volume are recorded. The measurement of tumor size is conducted twice weekly with a caliper and recorded. […]

[5] = test system: NCI-H2122 xenograft (KRAS G12C); experiment: In vivo efficacy, NCI-H2122 xenograft model; parameters: species or system mouse; details: 3 mg/kg QD, Day 31
Protocol: as §1

[6] = test system: 5637 xenograft (CRAF amplification); experiment: In vivo efficacy, 5637 xenograft model; parameters: species or system mouse; details: 5637 model, 3 mg/kg QD, Day 21
Protocol: as §1

[7] = test system: HCT-116 xenograft (KRAS G13D); experiment: In vivo efficacy, HCT-116 xenograft model; parameters: species or system mouse; details: HCT-116 model, Day 20
Protocol: (§2) The antitumor activity of exemplary MEK inhibitor compounds is evaluated in vivo using human cell line derived xenografts (CDX) grown in immunodeficient mice. For these studies, AsPC1 (pancreatic cell line with KRAS G12D mutation), NCI-H2122 (lung cell line with KRAS G12C mutation), and 5637 (bladder cell line with CRAF amplification) models are used. In addition, HCT-116 (colorectal cell line with KRAS G13D mutation), SKM-1 (AML cell line with KRAS K117N mutation), and OCI-AML-3 (AML cell line with NRAS Q61L mutation) models are used. The tumor cell lines (AsPC-1, NCI-H2122, 5637, and HCT-116 cells) are maintained in vitro as monolayer culture in medium at 37° C. in an atmosphere of 5% CO2 in air. The tumor cell lines (SKM-1 and OCI-AML-3 cells) are maintained in vitro as a suspension in medium at 37° C. in an atmosphere of 5% CO2 in air. The tumor cells are routinely sub-cultured before confluence by trypsin-EDTA treatment, not to exceed 4-5 passages. The cells growing in an exponential growth phase are harvested for tumor inoculation. AsPC1, NCI-H2122, and OCI-AML-3 tumors are implanted into Balb/c nude mice. HCT-116 tumors are implanted into Nu/Nu mice. 5637 and SKM-1 tumors are implanted into NOG mice. Each mouse is inoculated subcutaneously on the right flank with tumor cells in a 1:1 mixture with matrigel. Tumors are allowed to grow to approximately 150-200 mm^3. At this time, mice are assigned to groups such that the mean tumor volume is the same for each treatment group. The MEK inhibitor compound treatments are administrated to the tumor-bearing mice via oral gavage. Throughout the study, mouse body weight and tumor volume are recorded. The measurement of tumor size is conducted twice weekly with a caliper and recorded. The tumor volume (mm^3) is estimated using the formula: TV=a×b^2/2, where “a” and “b” are long and short diameters of a tumor, respectively.

[8] = test system: SKM-1 xenograft (KRAS K117N); experiment: In vivo efficacy, SKM-1 xenograft model; parameters: species or system mouse; details: SKM-1 model, Day 22
Protocol: as §2

[9] = test system: BRAF in complex with MEK; experiment: BRAF-MEK stabilization in cells (MEK immunoprecipitation, Western); format: cell-based; details: 3 nM, 4 hours
Text: (§3) The stabilization of ARAF, BRAF and CRAF in complex with MEK in MEK immunoprecipitates isolated from cellular lysates. For these studies, HCT-116 (colorectal cell line with KRAS G13D mutation), SKMEL-2 (melanoma cell line with NRAS Q61K mutation), HT-29 (colorectal cell line with BRAF Class I mutation), NCI-H1755 (lung cancer cell line with BRAF Class II mutation), and NCI-H1666 (lung cancer cell line with BRAF Class III mutation) models are used. The tumor cell lines are maintained in vitro as monolayer culture in medium at 37° C. in an atmosphere of 5% CO2 in air. Cell lines are treated with exemplary MEK inhibitors at a concentration of 3 nM for 4 hours. Cells are lysed and MEK is immunoprecipitated from the lysates overnight. Denatured immunoprecipitates are run on SDS-PAGE, transferred to nitrocellulose membranes and associated ARAF, BRAF, or CRAF are detected by Western analysis. Stabilization was defined as >1.5-fold induction of RAF-MEK interaction over vehicle control.

[10] = test system: CRAF in complex with MEK; experiment: CRAF-MEK stabilization in cells (MEK immunoprecipitation, Western); format: cell-based; details: HCT-116 and NCI-H1666 cells, 3 nM, 4 hours
Text: as §3

[11] = test system: 240 cell lines with known alterations in the MAPK pathway; experiment: MEK inhibitor sensitivity in 240 cell lines (Cell Titer Glo, 5 days); format: cell-based; details: cell lines with KRAS, NRAS, BRAF Class I and III mutations, CRAF-alterations
Protocol: 240 cell lines representative of multiple cancer indications with known alterations in the MAPK pathway, including KRAS, NRAS, HRAS, NF1, EGFR, BRAF and CRAF mutations, were seeded overnight in […], then treated with a 9-point dose response of exemplary MEK inhibitors (starting dose of 100 nM and 3-fold dilution) for 5 days. Cell viability was determined using a Cell Titer Glo (CTG) assay. Percent inhibition was calculated for all compounds utilizing staurosporine (1000 nM) treatment as a measure of maximal inhibition. IC50 and area under the curve (AUC) values were determined by fitting a variable slope, four parameters curve to the compound concentration to percent inhibition relationship.

Question: Which IC50 [1] does the source give for `CNS(=O)(=O)Nc1cccc(Oc2c(C(=O)NC3CC3)c(Nc3ccc(I)cc3F)n(C)c(=O)c2C)c1Cl` [Compound I-2, 4-(2-chloro-3-((N-methylsulfamoyl)amino)phenoxy)-N-cyclopropyl-2-((2-fluoro-4-iodophenyl)amino)-1,5-dimethyl-6-oxo-1,6-dihydropyridine-3-carboxamide] here?
Answer: < 100 nM

Question: What about the IC50 [2] of the same molecule?
Answer: < 100 nM

Question: What about the AUC(0-inf) [3] of the same molecule?
Answer: 1080 ng·h/mL

Question: And the AUC(0-t) [3]?
Answer: 1070 ng·h/mL

Question: What about the clearance [3] of the same molecule?
Answer: 16.6 mL/min/kg

Question: And the half-life [3]?
Answer: 4.22 h

Question: And the Vd ([3]; read-out: Vdss)?
Answer: 2.2 L/kg

Question: What about the “average body weight gain” value [4] of the same molecule?
Answer: 2.4%

Question: And the “percent TGI (tumor growth inhibition)” value [4]?
Answer: 83.4%

Question: What about the “average body weight loss” value [5] of the same molecule?
Answer: 1.5%

Question: And the “percent TGI” value [5]?
Answer: 104%

Question: What about the “average body weight loss” value [6] of the same molecule?
Answer: 6.8%

Question: And the “percent TGI” value [6]?
Answer: 111%

Question: And the “average body weight gain” value ([7]; 2 mg/kg QD)?
Answer: 4%

Question: What about the “percent TGI” value ([7]; 2 mg/kg QD) of the same molecule?
Answer: 102.9%

Question: What about the “average body weight gain” value ([7]; 3 mg/kg QOD) of the same molecule?
Answer: 5.5%

Question: What about the “percent TGI” value ([7]; 3 mg/kg QOD) of the same molecule?
Answer: 98.1%

Question: What about the “average body weight gain” value ([7]; 6 mg/kg QOD) of the same molecule?
Answer: 12.1%

Question: And the “percent TGI” value ([7]; 6 mg/kg QOD)?
Answer: 98%

Question: What about the “percent TGI” value ([8]; 1 mg/kg QD) of the same molecule?
Answer: 97.7%

Question: What about the weight gain ([8]; 1 mg/kg QD) of the same molecule?
Answer: 1.2%

Question: What about the “average body weight loss” value ([8]; 3 mg/kg QD) of the same molecule?
Answer: 1.2%

Question: And the “percent TGI” value ([8]; 6 mg/kg QOD)?
Answer: 96.2%

Question: What about the weight gain ([8]; 6 mg/kg QOD) of the same molecule?
Answer: 3.9%

Question: What about the “Wild-type BRAF-MEK association” value ([9]; HCT-116 and SKMEL-2 cells) of the same molecule?
Answer: augmented

Question: What about the “mutant BRAF-MEK interaction” value ([9]; HT-29 (BRAF Class I), NCI-H1755 (BRAF Class II), NCI-H1666 (BRAF Class III)) of the same molecule?
Answer: enhanced

Question: What about the “MEK inhibitor-induced MEK-CRAF stabilization” value [10] of the same molecule?
Answer: stabilization was observed

Question: And the “sensitivity compared to RAS/RAF wild-type cell lines” value [11]?
Answer: increased sensitivity
